Test results taken from patent US20060252807A1, “Novel ortho-terphenyl inhibitors of p38 kinase and methods of treating inflammatory disorders” (Kalypsys, Inc., priority 2005, published 2006).

Each compound was assayed against T1, active p38 alpha enzyme (Upstate Biotechnology) (Homo sapiens, UniProt Q16539) (assay: p38α biochemical assay (ATP turnover, luminescent detection, Cambrex PKlight)). Details: p38α biochemical assay, Table 1 Biological Activity.
T1 construct: purchased Upstate Biotechnology
T1 sequence (Q16539 whole entry): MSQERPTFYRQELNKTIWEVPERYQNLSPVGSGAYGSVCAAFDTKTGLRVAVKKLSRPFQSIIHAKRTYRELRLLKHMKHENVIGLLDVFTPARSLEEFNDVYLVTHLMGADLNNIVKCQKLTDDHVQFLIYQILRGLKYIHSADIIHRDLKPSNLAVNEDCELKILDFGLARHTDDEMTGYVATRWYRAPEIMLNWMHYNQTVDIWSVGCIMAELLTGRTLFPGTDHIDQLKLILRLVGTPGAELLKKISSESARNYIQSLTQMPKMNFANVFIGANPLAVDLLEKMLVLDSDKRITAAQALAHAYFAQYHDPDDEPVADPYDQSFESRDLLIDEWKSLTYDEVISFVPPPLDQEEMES
Summary of the method: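 Luminescent ATP-depletion readout measures total ATP turnover by p38α phosphorylating whole MapkapK2 protein. ATP 1.4 uM final; 30C, 2 h. Compounds delivered from DMSO.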

SMILES	IC50 [nM]
CC(C)NC(=O)c1csc(-c2c(-c3ccc(F)cc3)noc2CNC(=O)/C=C/c2ccc3c(c2)OCO3)n1 [Example 730]	> 1000
Cc1onc(-c2ccc(Cl)cc2)c1-c1ccn(C(=O)NCC2CCCO2)n1 (stereo not shown) [Example 12, 3-|3-(4-Chloro-phenyl)-5-methyl-isoxazol-4-yl|-pyrazole-1-carboxylic acid (tetrahydro-furan-2-ylmethyl)-amide]	> 1000
CC(C)NC(=O)c1csc(-c2c(-c3ccc(F)cc3)noc2CNC(=O)COc2ccccc2C=O)n1 [Example 687]	> 1000
Cc1nc(-c2ccc(F)cc2)c(-c2nc(C(N)=O)cs2)o1 [Example 39, 2-|4-(4-Fluoro-phenyl)-2-methyl-oxazol-5-yl|-thiazole-4-carboxylic acid amide]	> 1000
CC(C)NC(=O)c1csc(-c2oc(CN3CCN(C(=O)c4c(O)ccc5ccccc45)CC3)nc2-c2ccc(F)cc2)n1 [Example 480]	> 1000
Cc1ccccc1CCC(=O)NCc1nc(-c2ccc(F)cc2)c(-c2nc(C(=O)NC(C)C)cs2)o1 [Example 172]	> 1000
CCc1ccc(C(=O)NCc2nc(-c3ccc(F)cc3)c(-c3nc(C(=O)NC(C)C)cs3)o2)cc1 [Example 140]	> 1000
CC(C)NC(=O)c1csc(-c2oc(CN3CCN(C(=O)c4ccc(F)c([N+](=O)[O-])c4)CC3)nc2-c2ccc(F)cc2)n1 [Example 474]	> 1000
CC(C)NC(=O)c1csc(-c2c(-c3ccc(F)cc3)noc2CNC(=O)C(F)(F)F)n1 [Example 583]	≤ 1000
CC(C)NC(=O)c1csc(-c2oc(CN3CCN(C(=O)c4ccc(Cl)cc4Cl)CC3)nc2-c2ccc(F)cc2)n1 [Example 489]	> 1000
COC(=O)c1ccc(C(=O)N2CCN(Cc3nc(-c4ccc(F)cc4)c(-c4nc(C(=O)NC(C)C)cs4)o3)CC2)cc1 [Example 451]	> 1000
CC(C)NC(=O)c1csc(-c2c(-c3ccc(F)cc3)noc2CNC(=O)c2ccc(Oc3cccc(O)c3)cc2)n1 [Example 787]	> 1000
COc1cc(OC)c(C(=O)N2CCN(Cc3nc(-c4ccc(F)cc4)c(-c4nc(C(=O)NC(C)C)cs4)o3)CC2)cc1OC [Example 521]	≤ 1000
CC(C)NC(=O)c1csc(-c2oc(CNC(=O)c3cccc(F)c3)nc2-c2ccc(F)cc2)n1 [Example 127]	> 1000
CC(C)NC(=O)c1csc(-c2oc(CNC(=O)c3cccc([N+](=O)[O-])c3)nc2-c2ccc(F)cc2)n1 [Example 185]	> 1000
CC(C)NC(=O)c1csc(-c2c(-c3ccc(F)cc3)noc2CNC(=O)c2c(O)ccc3ccccc23)n1 [Example 718]	> 1000
CC(C)NC(=O)c1csc(-c2c(-c3ccc(F)cc3)noc2CNC(=O)c2ccccc2[N+](=O)[O-])n1 [Example 659]	> 1000
COc1cccc(OC)c1C(=O)N1CCN(Cc2nc(-c3ccc(F)cc3)c(-c3nc(C(=O)NC(C)C)cs3)o2)CC1 [Example 463]	≤ 1000
COc1cc(C(=O)NCc2onc(-c3ccc(F)cc3)c2-c2nc(C(=O)NC(C)C)cs2)cc(OC)c1O [Example 741]	> 1000

Same assay, conditions: p38α kinase; Table 1 Biological Activity

SMILES	IC50 [nM]
CCc1ccccc1NC(=O)c1csc(-c2sc(C)nc2-c2ccc(F)cc2)n1 [Example 1967]	> 1000
CC(C)NC(=O)c1csc(-c2oc(CN3CCOCC3)nc2-c2ccc(F)cc2)n1 [Example 1183]	≤ 1000
CC(C)NC(=O)c1csc(-c2c(-c3ccc(F)cc3)noc2CNC2CCCCC2C)n1 (stereo not shown) [Example 1423]	> 1000
CC(C)NC(=O)c1csc(-c2c(-c3ccc(F)cc3)noc2CNC2CC2)n1 [Example 1386]	> 1000
CC(C)CCNCc1onc(-c2ccc(F)cc2)c1-c1nc(C(=O)NC(C)C)cs1 [Example 1401]	> 1000
Cc1nc(-c2ccc(F)cc2)c(-c2nc(C(=O)N(C)CC(C)C)cs2)s1 [Example 1842]	> 1000
CC(C)NC(=O)c1csc(-c2c(-c3ccc(F)cc3)noc2CN2CCN(c3ccc(Cl)cc3)CC2)n1 [Example 1600]	> 1000
Cc1ccccc1OCC(=O)N1CCC(c2[nH]nc(-c3ccc(F)cc3)c2-c2nc(C(=O)NC(C)C)cs2)CC1 [Example 894]	> 1000
COc1ccc(OC)c(CCNC(=O)c2csc(-c3c(-c4ccc(F)cc4)n[nH]c3C3CCNCC3)n2)c1 [Example 2148]	> 1000
Cc1ccc(C)c(NC(=O)c2csc(-c3sc(C)nc3-c3ccc(F)cc3)n2)c1 [Example 1965]	> 1000
Cc1ccccc1CCC(=O)N1CCC(c2[nH]nc(-c3ccc(F)cc3)c2-c2nc(C(=O)NC(C)C)cs2)CC1 [Example 886]	> 1000
Cc1nc(-c2ccc(F)cc2)c(-c2nc(C(=O)N3CCCC(CO)C3)cs2)s1 (stereo not shown) [Example 1861]	> 1000
CC(C)NC(=O)c1csc(-c2c(-c3ccc(F)cc3)noc2CNc2cnc3ccccc3c2)n1 [Example 1669]	> 1000
CC(C)NC(=O)c1csc(-c2c(-c3ccc(F)cc3)n[nH]c2C2CCN(C(=O)C3CCCCC3)CC2)n1 [Example 832]	> 1000
CCN(CC)Cc1onc(-c2ccc(F)cc2)c1-c1nc(C(=O)NC(C)C)cs1 [Example 1513]	> 1000
CCc1cccc(C)c1NCc1onc(-c2ccc(F)cc2)c1-c1nc(C(=O)NC(C)C)cs1 [Example 1660]	> 1000
CC(C)NC(=O)c1csc(-c2c(-c3ccc(F)cc3)n[nH]c2C2CCN(C(=O)c3ncc[nH]3)CC2)n1 [Example 2175, 2-{3-(4-Fluoro-phenyl)-5-|1-(1H-imidazole-2-carbonyl)-piperidin-4-yl|-1H-pyrazol-4-yl}-thiazole-4-carboxylic acid isopropylamide]	≤ 1000
CC(=O)Oc1cccc(C(=O)N2CCC(c3[nH]nc(-c4ccc(F)cc4)c3-c3nc(C(=O)NC(C)C)cs3)CC2)c1 [Example 929]	> 1000
CC(C)NC(=O)c1csc(-c2c(-c3ccc(F)cc3)noc2CN(C)C[C@H](O)c2ccc(O)c(O)c2)n1 [Example 1582]	> 1000
CC(C)NC(=O)c1csc(-c2c(-c3ccc(F)cc3)n[nH]c2C2CCN(C(=O)CCc3cccc(Br)c3)CC2)n1 [Example 1024]	> 1000
CC(C)NC(=O)c1csc(-c2oc(CN3CCCCC3CCO)nc2-c2ccc(F)cc2)n1 (stereo not shown) [Example 1223]	> 1000
CC(C)NC(=O)c1csc(-c2oc(CN3CCC(O)(O)CC3)nc2-c2ccc(F)cc2)n1 [Example 1236]	> 1000
C#CCNCc1nc(-c2ccc(F)cc2)c(-c2nc(C(=O)NC(C)C)cs2)o1 [Example 1051]	> 1000
CC(C)NC(=O)c1csc(-c2oc(CNCc3ccc4c(c3)OCO4)nc2-c2ccc(F)cc2)n1 [Example 1142]	> 1000
CSc1ccccc1NC(=O)c1csc(-c2sc(C)nc2-c2ccc(F)cc2)n1 [Example 1991]	> 1000
CC(C)NC(=O)c1csc(-c2c(-c3ccc(F)cc3)noc2CN2CCN(c3cccc(C(F)(F)F)c3)CC2)n1 [Example 1623]	> 1000
Cc1nc(-c2ccc(F)cc2)c(-c2nc(C(=O)Nc3ccc(C)c(Cl)c3)cs2)s1 [Example 1993]	> 1000
COc1cccc(O)c1C(=O)N1CCC(c2[nH]nc(-c3ccc(F)cc3)c2-c2nc(C(=O)NC(C)C)cs2)CC1 [Example 900]	> 1000
Cc1nc(-c2ccc(F)cc2)c(-c2nc(C(=O)N(C)Cc3ccccc3)cs2)s1 [Example 1867]	> 1000
CC(C)NC(=O)c1csc(-c2c(-c3ccc(F)cc3)noc2CNCc2cccc(Cl)c2)n1 [Example 1461]	> 1000
